Experimental data reported in patent US20260014232A1, “Pharmaceutical Composition of GLP-1 and GIP Receptor Dual Agonist and Use Thereof” (Jiangsu Hengrui Pharmaceuticals Co., Ltd., priority 2021, published 2026).
Starred links: 1 amine or outer side, 2 acyl side, 3 side chain; linkers in the order of their positions; H or OH if unused. Non-standard residues stand in square brackets, D forms with d. Residues, ends and D or L forms follow the SMILES beside them. Groups on a side chain read outwards from the residue. *: point of attachment. C20 diacid = O=C(O)CCCCCCCCCCCCCCCCCCC(=O)*; γGlu = O=C(O)[C@H](CCC(=O)[*:2])N[*:1]; AEEA = NCCOCCOCC(=O)O; Aib = CC(C)(N)C(=O)O

Tests used:
[1] = Glucose metabolism level of db/db mice (fasting and random blood glucose, glycated hemoglobin); type: in vivo, C57BL/KsJ-db/db mice; settings: for Glycated hemoglobin: end of experiment day 28, mean ± SD
Method: Each administration group had 10 db/db mice. According to the experimental design, tail vein blood was collected by needle pricking on days 0, 7, 14, 21, and 28 and determined for fasting blood glucose levels with a glucometer and glucose dipsticks, and the mice were fasted 6 h prior to the blood collection at each time point. Tail vein blood was collected by needle pricking on days 3, 10, 17, 24, and 27 and randomly determined for blood glucose levels with a glucometer. Finally, at the end of the experiment on day 28, all the animals in the administration groups were subjected to 2-5% isoflurane inhalation anesthesia, and 100 μL of whole blood was collected through the orbit of each mouse using an EDTA-K2 anticoagulation tube and used for the determination of glycated hemoglobin.

[2] = Body weight of diet-induced-obesity mice after subcutaneous administration; type: in vivo, C57BL/6 mice; settings: DIO mice
Method: High-fat food-induced-obesity male C57BL/6 mice (weighing 35-55 g, aged 10-12 weeks, purchased from Shanghai Jiesijie Laboratory Animal Co., Ltd.) were tested. […] According to the experimental design, the body weight of each mouse was measured and recorded on day 0, day 3, day 6, and so on to day 27, the average body weight of each group of mice was calculated, and body weight change curves were plotted by taking the body weight on the first day as the standard. At the end, the fat and other visceral organs of each part of the mice were taken out and weighed, and the viscera/brain ratio for fat in each part of each mouse was calculated. The effect of the drug on the fat was determined by comparing the change in the viscera/brain ratio for fat of different parts of each group of mice.

[3] = 10 nmol/kg s.c., Day 0, mean ± SD
[4] = 30 nmol/kg s.c., Day 0, mean ± SD
[5] = 100 nmol/kg s.c., Day 0, mean ± SD

In the case of `CC[C@H](C)[C@H](NC(=O)[C@H](CCCCN)NC(=O)[C@H](CCC(=O)O)NC(=O)[C@H](CCCCNC(=O)COCCOCCNC(=O)COCCOCCNC(=O)CC[C@H](NC(=O)CCCCCCCCCCCCCCCCCCC(=O)O)C(=O)O)NC(=O)[C@H](Cc1ccc(O)cc1)NC(=O)[C@@H](NC(=O)[C@H](CO)NC(=O)[C@H](Cc1ccc(O)cc1)NC(=O)[C@H](CC(=O)O)NC(=O)[C@H](CO)NC(=O)[C@@H](NC(=O)[C@H](Cc1ccccc1)NC(=O)[C@@H](NC(=O)CNC(=O)[C@H](CCC(=O)O)NC(=O)C(C)(C)NC(=O)[C@@H](N)Cc1ccc(O)cc1)[C@@H](C)O)[C@@H](C)O)[C@@H](C)CC)C(=O)N[C@@H](C)C(=O)N[C@@H](C)C(=O)N[C@@H](CCC(N)=O)C(=O)N[C@@H](CCC(=O)O)C(=O)N[C@@H](Cc1ccccc1)C(=O)N[C@H](C(=O)N[C@@H](CC(N)=O)C(=O)N[C@@H](Cc1c[nH]c2ccccc12)C(=O)N[C@@H](CC(C)C)C(=O)N[C@@H](CC(C)C)C(=O)N[C@@H](C)C(=O)NCC(=O)NCC(=O)N1CCC[C@H]1C(=O)N[C@@H](CO)C(=O)N[C@@H](CO)C(=O)NCC(=O)N[C@@H](C)C(=O)N1CCC[C@H]1C(=O)N1CCC[C@H]1C(=O)N1CCC[C@H]1C(=O)N[C@@H](CO)C(N)=O)C(C)C` [Compound 18#] (H-Y[Aib]EGTFTSDYSIYK([AEEA-AEEA-γGlu-C20 diacid])EKIAAQEFVNWLLAGGPSSGAPPPS-NH2), the “Concentration of fasting blood glucose” value [1, 3] is reported as 14.77 ± 1.30 mmol/L, the “Concentration of random blood glucose” value [1, 3] is reported as 20.42 ± 1.56 mmol/L and the “Concentration of fasting blood glucose” value ([1]; 10 nmol/kg s.c., Day 7, mean ± SD) is reported as 6.05 ± 0.42 mmol/L. For the same compound, the “Concentration of random blood glucose” value ([1]; 10 nmol/kg s.c., Day 10, mean ± SD) was 20.66 ± 1.48 mmol/L, the “Concentration of fasting blood glucose” value ([1]; 10 nmol/kg s.c., Day 14, mean ± SD) was 6.30 ± 0.46 mmol/L and the “Concentration of random blood glucose” value ([1]; 10 nmol/kg s.c., Day 17, mean ± SD) was 18.91 ± 1.33 mmol/L. The “Concentration of fasting blood glucose” value ([1]; 10 nmol/kg s.c., Day 21, mean ± SD) was 7.89 ± 0.81 mmol/L, the “Concentration of random blood glucose” value ([1]; 10 nmol/kg s.c., Day 24, mean ± SD) was 21.17 ± 2.07 mmol/L and the “Concentration of fasting blood glucose” value ([1]; 10 nmol/kg s.c., Day 28, mean ± SD) was 9.41 ± 0.97 mmol/L. The Glycated hemoglobin ([1]; 10 nmol/kg s.c.) was 4.71 ± 0.23 %, the “Concentration of fasting blood glucose” value [1, 4] was 14.13 ± 1.32 mmol/L and the “Concentration of random blood glucose” value [1, 4] was 16.73 ± 1.59 mmol/L. For the same compound, the “Concentration of fasting blood glucose” value ([1]; 30 nmol/kg s.c., Day 7, mean ± SD) was 6.21 ± 0.26 mmol/L, the “Concentration of random blood glucose” value ([1]; 30 nmol/kg s.c., Day 10, mean ± SD) was 15.88 ± 1.86 mmol/L and the “Concentration of fasting blood glucose” value ([1]; 30 nmol/kg s.c., Day 14, mean ± SD) was 6.40 ± 0.57 mmol/L. For the same compound, the “Concentration of random blood glucose” value ([1]; 30 nmol/kg s.c., Day 17, mean ± SD) was 17.30 ± 1.17 mmol/L, the “Concentration of fasting blood glucose” value ([1]; 30 nmol/kg s.c., Day 21, mean ± SD) was 7.03 ± 0.52 mmol/L and the “Concentration of random blood glucose” value ([1]; 30 nmol/kg s.c., Day 24, mean ± SD) was 17.43 ± 1.92 mmol/L. The “Concentration of fasting blood glucose” value ([1]; 30 nmol/kg s.c., Day 28, mean ± SD) was 9.68 ± 1.03 mmol/L, the Glycated hemoglobin ([1]; 30 nmol/kg s.c.) was 4.53 ± 0.17 % and the “Concentration of fasting blood glucose” value [1, 5] was 14.67 ± 1.46 mmol/L. The “Concentration of random blood glucose” value [1, 5] was 9.11 ± 1.25 mmol/L, the “Concentration of fasting blood glucose” value ([1]; 100 nmol/kg s.c., Day 7, mean ± SD) was 5.85 ± 0.33 mmol/L and the “Concentration of random blood glucose” value ([1]; 100 nmol/kg s.c., Day 10, mean ± SD) was 12.34 ± 1.12 mmol/L. The “Concentration of fasting blood glucose” value ([1]; 100 nmol/kg s.c., Day 14, mean ± SD) was 6.25 ± 0.32 mmol/L, the “Concentration of random blood glucose” value ([1]; 100 nmol/kg s.c., Day 17, mean ± SD) was 11.89 ± 1.15 mmol/L and the “Concentration of fasting blood glucose” value ([1]; 100 nmol/kg s.c., Day 21, mean ± SD) was 6.13 ± 0.19 mmol/L. For the same compound, the “Concentration of random blood glucose” value ([1]; 100 nmol/kg s.c., Day 24, mean ± SD) was 11.51 ± 0.95 mmol/L, the “Concentration of fasting blood glucose” value ([1]; 100 nmol/kg s.c., Day 28, mean ± SD) was 7.89 ± 0.41 mmol/L and the Glycated hemoglobin ([1]; 100 nmol/kg s.c., listed as 18 #) was 3.78%. The Glycated hemoglobin ([1]; 100 nmol/kg s.c., listed as #18) was 3.78 ± 0.13 %, the “rate of body weight change” value ([2]; 3 nmol/kg s.c. every 3 days, day 0 (before administration)) was 0% and the “rate of body weight change” value ([2]; 3 nmol/kg s.c. every 3 days, day 1) was −5%. The “rate of body weight change” value ([2]; 3 nmol/kg s.c. every 3 days, day 2) was −6.3%, the “rate of body weight change” value ([2]; 3 nmol/kg s.c. every 3 days, day 3) was −5.8% and the “rate of body weight change” value ([2]; 3 nmol/kg s.c. every 3 days, day 4) was −9.1%. The “rate of body weight change” value ([2]; 3 nmol/kg s.c. every 3 days, day 5) was −10.3%, the “rate of body weight change” value ([2]; 3 nmol/kg s.c. every 3 days, day 6) was −10% and the “rate of body weight change” value ([2]; 3 nmol/kg s.c. every 3 days, day 7) was −13%. For the same compound, the “rate of body weight change” value ([2]; 3 nmol/kg s.c. every 3 days, day 8) was −13.9%, the “rate of body weight change” value ([2]; 3 nmol/kg s.c. every 3 days, day 9) was −13.9% and the “rate of body weight change” value ([2]; 3 nmol/kg s.c. every 3 days, day 10) was −16.6%. The “rate of body weight change” value ([2]; 3 nmol/kg s.c. every 3 days, day 11) was −16.4%, the “rate of body weight change” value ([2]; 3 nmol/kg s.c. every 3 days, day 12) was −15.7% and the “rate of body weight change” value ([2]; 3 nmol/kg s.c. every 3 days, day 13) was −18.2%. The “rate of body weight change” value ([2]; 3 nmol/kg s.c. every 3 days, day 14) was −17.1%, the “rate of body weight change” value ([2]; 3 nmol/kg s.c. every 3 days, day 15) was −15.7% and the “rate of body weight change” value ([2]; 3 nmol/kg s.c. every 3 days, day 16) was −18.6%. For the same compound, the “rate of body weight change” value ([2]; 3 nmol/kg s.c. every 3 days, day 17) was −18.3%, the “rate of body weight change” value ([2]; 3 nmol/kg s.c. every 3 days, day 18) was −17.9% and the “rate of body weight change” value ([2]; 3 nmol/kg s.c. every 3 days, day 19) was −20.5%. The “rate of body weight change” value ([2]; 3 nmol/kg s.c. every 3 days, day 20) was −19.8%, the “rate of body weight change” value ([2]; 3 nmol/kg s.c. every 3 days, day 21) was −17.8% and the “rate of body weight change” value ([2]; 3 nmol/kg s.c. every 3 days, day 22) was −19.3%. The “rate of body weight change” value ([2]; 3 nmol/kg s.c. every 3 days, day 23) was −19.1%, the “rate of body weight change” value ([2]; 3 nmol/kg s.c. every 3 days, day 24) was −17.3% and the “rate of body weight change” value ([2]; 3 nmol/kg s.c. every 3 days, day 25) was −19.9%. For the same compound, the “rate of body weight change” value ([2]; 3 nmol/kg s.c. every 3 days, day 26) was −18.8%, the “rate of body weight change” value ([2]; 3 nmol/kg s.c. every 3 days, day 27) was −16.1% and the “rate of body weight change” value ([2]; 3 nmol/kg s.c. every 3 days, day 28) was −19.2%. The “rate of body weight change” value ([2]; 10 nmol/kg s.c. every 3 days, day 0 (before administration)) was 0%, the “rate of body weight change” value ([2]; 10 nmol/kg s.c. every 3 days, day 1) was −6.2% and the “rate of body weight change” value ([2]; 10 nmol/kg s.c. every 3 days, day 2) was −8.6%. For the same compound, the “rate of body weight change” value ([2]; 10 nmol/kg s.c. every 3 days, day 3) was −9.4%, the “rate of body weight change” value ([2]; 10 nmol/kg s.c. every 3 days, day 4) was −12.7% and the “rate of body weight change” value ([2]; 10 nmol/kg s.c. every 3 days, day 5) was −14.5%. For the same compound, the “rate of body weight change” value ([2]; 10 nmol/kg s.c. every 3 days, day 6) was −15% and the “rate of body weight change” value ([2]; 10 nmol/kg s.c. every 3 days, day 7) was −18.3%.
